Entries after “also recorded” stand apart in the source; their conditions may differ.
What was measured:
other neurons = assay: Toxicity for other neurons (abstract summary); assay type: cell-based; details: Homo sapiens, Neuron, read-out: half-maximal toxicity for other neurons
[1] = system: dopaminergic system of C. elegans BY200; assay: Basal slowing response (BSR) behavioral assay; assay type: in vivo, Caenorhabditis elegans; details: L4 BY200 worms treated 2 days
Method: The basal slowing response (BSR) is a behavioral assay that assesses the functionality of the worms’ DAergic system. For this, worms were washed three times with S-basal buffer (100 mM NaCl, 5 mg/L cholesterol, 50 mM potassium phosphate buffer, pH 6.0) to remove residual bacteria, and placed on the center of a 60-mm NGM plates in the absence or presence of an OP50 bacteria ring. After habituation (5 min), the number of body bends of each worm was counted during 20 s to determine its immobility rate. The results were expressed as the difference (Δ) between the number of body bends in the absence (a) and presence (p) of bacteria on fresh plates (Δ = a-p). […]
Fig. 5. […] They were exposed to different aerugine concentrations and counted every 24 h. […] Differences on a given day were analyzed by ANOVA and found to be non-significant. […] The GFP-labelled neurons of 20–30 worms per condition were analyzed and scored for specific neurodegeneration. […] These scores were assessed to quantify the dopaminergic neurodegeneration caused be aerugine in vivo. C Worms with wild type morphology (score 0) were counted. […] D The degeneration scores exemplified in B were quantified. […] E The “basal slowing response” was assessed as proxy for the functionality of the worms’ dopaminergic system. It was measured in L4 larval stage BY200 worms treated for 2 days with aerugine. […]

LUHMES neurons = assay: LDH-release and resazurin reduction tests on d6 LUHMES; assay type: cell-based, human; details: 24 h
Method: The assay was performed as described earlier ([Latta et al., 2000]). In brief, supernatants were transferred to an un-coated 96-wellplate and cells were lysed in 110 μl of phosphate buffered saline (PBS) with 0.1% Triton-X100 for 1 h at room temperature. Lactate dehydrogenase (LDH) activity was assessed in the supernatant and the cell lysate individually by combining 10 μl sample with 100 μl potassium phosphate buffer pH 7.5 containing 640 μM pyruvate and […] NADH. NADH was quantified by measuring the absorption at 340 nm over 15 min and its decline was proportional to the LDH content. LDH release was calculated as the ratio of LDHsupernatant/LDHsupernatant+lysate.
The assay was performed as described previously ([Schildknecht et al., 2009]). In brief, cells were stained with 10 μg/ml resazurin and incubated for 30 min at 37 °C and 5% CO2. The fluorescence of resazurin was detected with an excitation wavelength of 530 nm, using a 590 nm long-pass filter to record the emission. […]
Supplementary Figure S7: Viability endpoints measured on d6 LUHMES treated with aerugine Cultures of differentiated LUHMES neurons were exposed on d6 to serial dilutions of aerugine for 24 h. The cell viability (V), neurite area (NA) were assessed 24 h later by calcein-AM & H-33342 staining and high content imaging. Resazurin reduction and LDH release were measured subsequently. […]

Enterococcus faecalis = assay: Bacterial growth assay; assay type: cell-based; details: 20 μM, log growth phase
Method: Enterococcus faecalis was grown in BHI medium (BD Difco Brain Heart Infusion) with 36 g/l supplemented with 20 μg/ml hemin, 20 μg/ml NAD and 15 g/l agar for plates. Enterococcus faecalis strain 438 originates from eye isolate. Neisseria gonorrhoeae strain MS11 was gifted by T. F. Meyer (Max-Planck-Institute for Infection Biology, Berlin, Germany) ([Edwards et al., 1984]).
Bacteria were grown as described above on solid medium. Prior to substance exposure, bacteria were pre-cultured in liquid medium for at least 2 h. Optical density was determined and a volume equal to an OD550 of 0.2 for Neisseria gonorrhoeae MS11 (equates a final OD550 of 0.04) and an OD600 of 0.2 for Enterococcus faecalis (equates a final OD600 of 0.04) was inoculated into 5 ml of the respective liquid medium. Compound was added at the indicated amounts. Dimethyl sulfoxide (DMSO) level was adjusted to 1 % of final concentration including DMSO control. Samples were incubated for either 10.5 h, until they reached a stationary phase (three measured values in stationary phase) or until they reached an OD of 2.5. Optical density was determined every 0.5 h at OD550 for Neisseria gonorrhoeae MS11 and at OD600 for Enterococcus faecalis. ([Szamosvári et al., 2019]).

SMILES: OCC1CSC(c2ccccc2O)=N1 (stereo not shown) [aerugine, 2-[4-(hydroxymethyl)-4,5-dihydro-1,3-thiazol-2-yl]phenol]
- EC50 (other neurons): 10 to 20 µM
- basal slowing response (BSR) [1]: attenuated; also recorded: exerted functional dopaminergic toxicity
- LDH-release and resazurin reduction viability (LUHMES neurons): confirmed the single cell data, although with slightly less sensitivity
- viability or growth (Enterococcus faecalis): not affected in viability or growth

From PMC10666548, “Identification of the bacterial metabolite aerugine as potential trigger of human dopaminergic neurodegeneration” (Environment international, 2023)
